Data on 1 compound can be found in article PMC12250347, “Calcium-dependent pathway as a primary cause of hypoxic RGC damage in monkey retinal explants” (PLOS One, 2025).

Assay [1] deals with calpains 1 and 2 in monkey retinal lysate. The assay is described as follows: In vitro inhibitory assay of calpains from retinal lysate (CaCl2, immunoblotting). It is filed as biochemical. As to conditions: non-cultured monkey retina lysate, 10 mM CaCl2, 2 hr, 37°C; inhibitor at 1, 10 and 100 µM. The method, then:
Each retinal explant was sonicated in RIPA Lysis and Extraction Buffer (Thermo Fisher Scientific), with protease inhibitors cocktail (Complete Mini-EDTA-free; MilliporeSigma). Protein concentrations in lysates were measured by BCA assay (Pierce BCA Protein Assay Kit, Thermo Fisher Scientific) using bovine serum albumin as a standard. For immunoblotting, 5 μg of each sample was loaded and run on 4% to 12% gradient or 10% SDS-PAGE gels (NuPAGE Bis-Tris Protein Gels, Thermo Fisher Scientific) with 2-(N-morpholino)ethanesulfonic acid buffer or 3-(N-morpholino) propanesulfonic acid buffer (Thermo Fisher Scientific). Proteins were then electrotransferred to a polyvinylidene fluoride membrane (MilliporeSigma) at 100 V for 60 min or 1.5 hr. Membranes were then blocked with 5% skim milk in Tris-buffer saline (Bio-Rad Laboratories, Hercules, CA, USA) containing 0.05% Tween 20. Each membrane was probed with primary antibodies against α-spectrin (1:2000 dilution, Enzo Life Sciences, Farmingdale, NY, USA), SBDP150 (1:1000 dilution, Senju Pharmaceutical), calpain 1 (1:1000 dilution, Thermo Fisher Scientific), calpain 2 (1:500, GeneTex, Irvine, CA, USA), cathepsin K (1:500 dilution, Abcam), and β-actin (1:1000 dilution, Merck). For calpain 1, immunoreactivity was visualized using a secondary antibody conjugated to alkaline phosphatase and the AP Conjugate Substrate Kit (Bio-Rad Laboratories). For other proteins, immunoreactivities were visualized using secondary antibodies conjugated with rabbit (Santa Cruz Biotechnology) or mouse horseradish peroxidase enzyme (Cytiva, Wilmington, DE, USA) and ECL Plus detection reagents (Cytiva). Images of the membranes were captured with FluorChem FC2 imager (Cell Biosciences, Santa Clara, CA, USA). The conversion of pro-cathepsin K (38 kDa) to its mature form (27 kDa) was used as an indicator of cathepsin K activation.
To confirm the isozyme specificities of calpain inhibitors in vitro, non-cultured monkey retinas were sonicated in a buffer containing 20 mM Tris (pH 7.5), 5 mM EGTA, 5 mM EDTA, 2 mM DTE. […]
Background: A western blot detects proteins with antibodies after separation by electrophoresis.

In assay [2] the test system is RGCs in monkey retinal explants. Further details: method as in PMID 26393472, PMID 33156340. As to conditions: human and monkey retinal explants treated with hypoxia; cited from earlier work.

Take `COCCOCCOC(=O)N[C@@H](CC(C)C)C(=O)N[C@@H](Cc1ccccc1)C(=O)C(=O)NC1CC1` [SNJ-1945]: in assay [1], the “Effect on calcium-induced activation (autolysis) of calpains 1 and 2 and SBDP150 in retinal lysate” value was “inhibited the activation of both calpain 1 and calpain 2 in a dose-dependent manner”. Further, the “Effect on RGC damage in hypoxic retinal explants” value in assay [2] is on record as “partially inhibited RGC damage”.
